“Also recorded” adds a separate entry of the source.

The test system of data set [1] is P. berghei liver stages. The data set can be described thus: In vitro activity against the liver stage of Plasmodium infection (luciferase assay in Huh7 cells). The data set is classed as cell-based, Plasmodium berghei. Particulars: for anti-Plasmodium activity (in words): P. berghei liver stages in Huh7 cells. As for the experimental part:
FIG. 6: Compound activity against P. berghei liver stages. Anti-Plasmodial activity (infection axis, bars) and toxicity to hepatoma cells (cell confluency axis, circles) are shown. Infection loads of Huh7 cells, a human hepatoma cell line, were determined by bioluminescence measurements of cell lysates 48 h after infection with luciferase-expressing P. berghei parasites. Luciferase assay in 96 well-plate; 10 000 Huh7 cells/well+10 000 PbA-LuciGFPcon spz/well.
In an embodiment, the in vitro activity against the liver stage of Plasmodium infection was also carried out: inhibition of liver stage Plasmodium infection by test compounds was determined by measuring the luminescence intensity in Huh-7 cells infected with a firefly luciferase-expressing P. berghei line, as previously described. Briefly, Huh-7 cells, a human hepatoma cell line, were cultured in 1640 RPMI medium supplemented with 10% v/v fetal bovine serum, 1% v/v nonessential amino acids, 1% v/v penicillin/streptomycin, 1% v/v glutamine, and 10 mM 4-(2-hydroxyethyl)-1-piperazineethanesulfonic acid (HEPES), pH 7, and maintained at 37° C. with 5% CO2. For infection assays, Huh-7 cells (1.0×10^4 per well) were seeded in 96-well plates the day before drug treatment and infection. The medium was replaced by medium containing the appropriate concentration of each compound approximately 1 h prior to infection with sporozoites freshly obtained through disruption of salivary glands of infected female Anopheles stephensi mosquitoes. Sporozoite addition was followed by centrifugation at 1700×g for 5 min. Parasite infection load was measured 48 h after infection by a bioluminescence assay (Biotium). The effect of the compounds on the viability of Huh-7 cells was assessed by the AlamarBlue assay (Invitrogen, U.K.) using the manufacturer's protocol.

For data set [2], the system named is Escherichia coli ATCC 10536. The experiment in a line: Anti-bacterial activity, agar diffusion method. The data set is classed as cell-based. Particulars: at the concentration of 1 mg/ml. The protocol:
(§1) In an embodiment, anti-bacterial activity of the compounds now disclosed was determined according to CLSI guidelines. The following bacteria were used: reference strains E. coli ATCC 10536, Staphylococcus aureus ATCC 6538, Bacillus subtilis ATCC 6633 and Enterococcus faecalis ATCC 29212; clinical strains of E. coli and Pseudomonas aeruginosa isolated in our laboratory; and strains of Lactobacillus rhamnosus and Lactobacillus plantarum also isolated in our laboratory. The Minimum Inhibitory Concentration (MIC) was determined by the agar diffusion method, in plates of Mueller-Hinton agar or Rogosa agar (for Lactobacilli). Briefly, 10^8 cfu/ml bacterial suspensions were prepared in sterile water and spread in the culture media. Sterile disks containing different concentrations of P3 were placed on the inoculated surface. Plates were incubated at 37° C. for 24 h or 48 h. Lactobacilli were incubated at microaerophilic conditions. A negative control made of sterile water was used. Disks of amoxicillin and imipenem were used as positive controls.

In data set [3] the test system is Lactobacillus rhamnosus. The data set can be described thus: Anti-bacterial activity, agar diffusion method. Conditions: at the concentration of 1 mg/ml. The data set is classed as cell-based. The protocol:
as §1
On the technique in general: In agar diffusion tests the substance spreads into inoculated agar from a disc or well.

In data set [4] the test system is Enterococcus faecalis ATCC 29212. The data set can be described thus: Anti-bacterial activity, agar diffusion method. Particulars: at the concentration of 1 mg/ml. The data set is classed as cell-based. The protocol:
as §1

The subject of data set [5] is Escherichia coli (Clinical strain). The data set can be described thus: Anti-bacterial activity, agar diffusion method. It is filed as cell-based. Conditions: at the concentration of 1 mg/ml. As for the experimental part: as §1
The test system of data set [6] is Lactobacillus plantarum. The data set can be described thus: Anti-bacterial activity, agar diffusion method. The data set is classed as cell-based. Particulars: at the concentration of 1 mg/ml. The protocol:
as §1

Data set [7] relates to Staphylococcus aureus ATCC 6538. The data set can be described thus: Anti-bacterial activity, agar diffusion method. It is filed as cell-based. Conditions: at the concentration of 1 mg/ml. As for the experimental part: as §1
For data set [8], the system named is Pseudomonas aeruginosa (Clinical strain). The experiment in a line: Anti-bacterial activity, agar diffusion method. It is filed as cell-based. Conditions: at the concentration of 1 mg/ml. As for the experimental part: as §1
Data set [9] is described as follows: Acute toxicity assay in Wistar rats. As for the experimental part: Wistar rats (n=5) were inoculated IP with different doses of BSS-593 and effects on liver, renal and lipid homeostasis were assessed by dosing different biochemical parameters 48 h after inoculation. ALT, AST and LDH were determined as markers of liver function and serum level of creatinine were determined as marker of renal function. Serum levels of total cholesterol, low-density cholesterol (LDL), high-density cholesterol (HDL) and triglycerides were measured to evaluate the effect of the drugs on lipid homeostasis. Results were expressed as the means with their standard errors and were compared using a one-factorial ANOVA test, followed by a Bonferroni's multi-comparison post hoc test.
In an embodiment, the acute toxicity assay of spiro-β-lactam BSS-593 was carried out. […] Control animals were administered with sterile saline (1 mL/kg; n=4). […] After blood collection animals were necropsied to identify macroscopic signs of organ injury.
In an embodiment, an acute toxicity assay was carried out. Female Wistar (220-250 g) rats were randomly divided in 4 groups. […] A fourth group of control animals was administered with sterile saline (B. Braun, Portugal) (1 mL/kg; n=4). Animals received the test drug via the intraperitoneal route and were monitored regularly for visible stress or toxicity signs such as death. All rats were anesthetized with sodium pentobarbital (Eutasil, 60 mg/kg i.p; Sanofi VeterinAria, Alges, Portugal) prior to intracardiac puncture for blood collection. […] Blood was collected into a serum SST gel and clot activator tube (Becton Dickinson, Le Pont de Claix, France) and was centrifuged (1000×g for 10 min at room temperature) to separate serum. Serum was analyzed within 24 h on a laboratory bench Clinical Chemistry Analyser c111 (Roche Diagnostics, Lda). Uver injury was assessed by measuring the rise in the serum levels of alanine aminotransferase (ALT, a specific marker for hepatic parenchymal injury), aspartate aminotransferase (AST, a nonspecific marker for hepatic injury) and lactate dehydrogenase (LDH, a marker of nonspecific cellular injury). Serum levels of creatinine was determined as marker of renal injury. Serum levels of total cholesterol, low-density cholesterol (LDL), high-density cholesterol (HDL) and triglycerides were also measured to evaluate the effect of the drugs on lipid homeostasis. Results were expressed as the means with their standard errors and were compared using a one-factorial ANOVA test, followed by a Bonferroni's multi-comparison post hoc test. A P value <0.05 was considered to be statistically significant.

Setting [10] is: single intraperitoneal dose 0.1, 1 or 10 mg/kg, 48 h.

Take `COC(=O)C1=C[C@@]2(N=N1)C(=O)N1[C@@H](C(=O)O)C(C)(C)S[C@@H]12` [BSS-593, (2,3′R,5R)-5′-(methoxycarbonyl)-3,3-dimethyl-7-oxo-4-thia-1-azaspiro[bicyclo[3.2.0]heptane-6,3′-pyrazole]-2-carboxylic acid]: the “anti-Plasmodium activity (in words)” value in [1] was “presented activity”. The inhibitory activity result in data set [2], in data set [3], in [4], in data set [5], in data set [6] and in data set [7] was “no inhibitory activity” throughout. Further, the inhibitory activity result in data set [8] is given as “no inhibitory activity”. Further, the “time to anaesthesia (sodium pentobarbital) between treated and control animals” value in [9] (intraperitoneal 0.1, 1 or 10 mg/kg, reflects apparent CNS effects) was “no significant differences”. The “abnormal behavior or signs of toxicity” value in [9] (setting [10]) was “No abnormal behavior or signs of abnormal toxicity were noticed”. Besides, in [9] (setting [10]), the “biochemical markers of liver function, kidney function and general cell injury (ALT, AST, creatinine, LDH in the blood) vs control animals” value was “no significant differences; also recorded: does not induce liver and renal injury”. Moreover, in [9] (setting [10]), the “blood lipid profiles (cholesterol, LDL, HDL and TG)” value is on record as “no changes; also recorded: does not alter lipid metabolism”. The “macroscopic signs of organ injury at necropsy” value in data set [9] (single intraperitoneal dose 0.1, 1 or 10 mg/kg, after blood collection) was “No significant differences”. The compound further displayed an animal survival rate in data set [9] (single intraperitoneal dose 0.1, 1 or 10 mg/kg, test period of 48 h) of 100%.
For the compound `CC1(C)S[C@H]2N(C(=O)[C@]23CC=C(C(=O)OCc2ccccc2)[C@@H]3C(=O)c2ccccc2)[C@H]1C(=O)OC(c1ccccc1)c1ccccc1` [BSS-730A], the “anti-Plasmodium activity (in words)” value in data set [1] is listed as “presented activity”. This compound also displayed a concentration for half-maximal inhibition (IC50) in data set [1] (luciferase-expressing P. berghei in Huh7 cells, 48 h after infection) of 0.55 µM. In addition, the inhibitory activity entry in data set [2], in data set [3], in data set [4], in [5], in data set [6] and in data set [7] was “no inhibitory activity” in each case. The inhibitory activity entry in data set [8] is given as “no inhibitory activity”.

In general, IC50 refers to the concentration that gives 50% inhibition. Read a high IC50 as weaker potency in that assay.
